The text below walks through data of patent US20030104079A1, “Skin tissue regeneration promoters comprising ginsenoside Rb1” (Japan Science and Technology Corporation, Japan, priority 2000, published 2003).

Series [1] is described as follows: Observation of administered animals for side effects. It counts as in vivo, rats. As to conditions: present experiments, animals carefully observed. An excerpt: The amount of administration of ginsenoside Rb1, which is used as the preparation(s) for external or topical application to skin or the preparation(s) for external or topical application to mucosa, is far smaller than the amount of intravenous administration.
Actually, as indicated in PCT/JP00/04102 (Brain cell or nerve cell protecting agents comprising ginseng), as far as directing treatment or therapy of cerebral infarction by continuous intravenous administration in a dose of […] (weighing 300 g), dihydroginsenoside Rb1 is thought to be a quite safe pharmaceutical composition. The amount of administration of ginsenoside Rb1, which is used as the preparation(s) for external or topical application to skin or the preparation(s) for external or topical application to mucosa, is far smaller than the amount of intravenous administration.

For the next series, the system named is open wound of rat skin. The series is described as follows: Open wound healing by external or topical application to skin (propet ointment). The format is in vivo, rats. Conditions: for action to promote wound healing: sprayed or spread on the local open wound of rats' skin, inventors' experiences. An excerpt: For that purpose, for example, by using Wistar male rats (body weight about 300 g), the punch biopsies with diameter 6 mm were made in the dorsal region of animals after shaving under inhalation anesthesia to prepare 3 regions of open wound. Among them, 0.1 g of ophthalmic white Vaseline (Propet) containing 0.01% by weight or 0.001% by weight of ginsenoside Rb1 was spread once for every day in two regions, and in the remaining open wound, the equal amount of ophthalmic white Vaseline (propet) was spread. Nine days after preparing open wound, the skin including wound regions was photographed. Further, we have examined the effects of external or topical cutaneous spread of 0.0001% by weight, 0.00001% by weight or 0.000001% by weight of ginsenoside Rb1 by the same procedure. Experimental animals were euthanized by anesthetia immediately before photographing, then wound regions were dissected out after photographing or after dissecting out wound regions, photographing was performed. Thereafter, the wound region tissues were stored in the fixative. FIG. 5 and FIG. 6 are photographs in place of drawings.
The punch biopsy with diameter 6 mm was performed in the dorsal 6 regions of each animal under inhalation anesthesia to prepare open wound. Thereafter, 0.1 g of propet (ophthalmic white vaseline) containing ginsenoside Rb1 at the concentrations of 0.0001% by weight (10^−4% by weight), 0.00001% by weight (10^−5% by weight), 0.000001% by weight (10^−6% by weight), 0.0000001% by weight (10^−7% by weight) and 0.00000001% by weight (10^−8% by weight), respectively, was applied externally, once a day, for 9 days on each open wound. The equal amount of propet alone was applied externally or topically in the control animals. Then, immediately after euthanasia by anesthetization, the skin containing the open wound was dissected out and photographed. The collected skin tissue was preserved in a fixative. FIG. 12 is a photograph in place of drawing.
In each case, there are three wounds on the left side and three wounds on the right side, totally 6 marks of open wounds.
In the experimental cases hereinbefore explained, an area of open wound (flair region) applied externally only with propet is set as a denominator and an area of open wound administered externally with ginsenoside Rb1 at concentrations from 10^−4% by weight to 10^−8% by weight is set as a numerator, and ratio thereof is calculated. In FIG. 13, n=3 and single asterisk (*) indicates significant difference, P<0.05, and two asterisks (**) indicate significant difference, P<0.01. Statistical test was performed according to Scheffe's post hoc test.
Details of dihydroginsenoside Rb1 is described in the specification of PCT/JP00/04102 (Brain cell or nerve cell protecting agents comprising ginseng). The punch biopsy with diameter 6 mm was performed at 5 places in the dorsal region of rats (n=4) under inhalation anesthesia to prepare open wound. Thereafter, 0.1 g of propet containing dihydroginsenoside Rb1 at concentrations of 0.0001% by weight (10^−4% by weight), 0.00001% by weight (10^−5% by weight), 0.000001% by weight (10^−6% by weight) and 0.0000001% by weight (10^−7% by weight), respectively, was applied topically or externally, once a day, for 9 days onto each open wound. The equal amount of propet alone was applied externally or topically in the control animals. Then, immediately after euthanasia by anesthetization, the skin containing the open wound was dissected out and photographed. The collected skin tissue was preserved in a fixative. FIG. 14 is a photograph in place of drawing. In FIG. 14, four cases are shown, and from the upper column, the first case, the second case, the third case and the fourth case are shown.

Series [2] has as its system cultured nerve cells (neurons). The series is described as follows: SNP-induced apoptosis of cultured nerve cells, MAP2 immunoblotting. The format is cell-based, rats. An excerpt:
We (Sakanaka and Tanaka) had reported that when cultured nerve cells were exposed for a short time to sodium nitroprusside, apoptosis or apoptosis-like cell death of neurons is induced (Toku, K. et al., J. Neurosci. Res., 53, 415-425, 1998). […] We have examined the neuroprotective action of dihydroginsenoside Rb1 using the same experimental system.
Nerve cells were isolated from the cerebral cortices of fetal rats at gestation day 17 by using trypsin EDTA and seeded onto 24 well plate coated with poly-L-lysine. After incubating the cells in Dulbecco's modified Eagle's medium (DMEM) containing 10% fetal calf serum for 16 hours, the culture medium was replaced with a serum-free medium for neuronal culture containing insulin, transferrin, etc. and the neurons were cultured for 3 or 4 days. On day 3 or 4 of culture, sodium nitroprusside (SNP) at the concentration of 300 μM was added to the neuronal culture and incubated for 10 minutes. […] In order to quantify the survival rate of nerve cells or neurons, immunostained MAP2 band was analyzed with densitometry. […]
Nerve cells were isolated from cerebral cortices of fetal rats on gestation day 17 by using trypsin EDTA and seeded onto a 24 well plate(s) coated with poly-L-lysine. […] In order to quantify survival rate of nerve cells, immunostained MAP2 band was analyzed with densitometry.
For orientation: A western blot detects proteins with antibodies after separation by electrophoresis.

A further series has as its system cerebral infarct lesion. As to conditions: intravenous 6 pg/day-60 pg/day, rats weighing 300 g; PCT/JP00/04102; cited from earlier work.

For the compound `CC(C)CCC[C@](C)(O[C@@H]1O[C@H](CO[C@@H]2O[C@H](CO)[C@@H](O)[C@H](O)[C@H]2O)[C@@H](O)[C@H](O)[C@H]1O)[C@H]1CC[C@]2(C)[C@@H]1[C@H](O)C[C@@H]1[C@@]3(C)CC[C@H](O[C@@H]4O[C@H](CO)[C@@H](O)[C@H](O)[C@H]4O[C@@H]4O[C@H](CO)[C@@H](O)[C@H](O)[C@H]4O)C(C)(C)[C@@H]3CC[C@]12C` [dihydroginsenoside Rb1], in series [1], the “side effect in administered animals” value was “no side effect was noted”. In addition, the “ratio of open wound area to propet alone (FIG. 15)” value with open wound of rat skin (0.00001% by weight (10^−5% by weight) or less, n=4, Fisher's PLSD P<0.05) was “facilitated significantly wound healing”. The “therapeutic effect on open wound in rats” value in the series on open wound of rat skin (0.0001% by weight (10^−4% by weight)) was “trivial”. In the series on open wound of rat skin (dihydroginsenoside Rb1 at 10^−5%, 10^−6% or 10^−7% by weight), the “area of open wound region relative to control” value was “½-¼”. The “hair growth in wound healing region (FIG. 14)” value in the series with open wound of rat skin (low concentrations of dihydroginsenoside Rb1) is reported as “obvious hair growth was observed”. The “wound healing vs propet alone (FIG. 14)” value with open wound of rat skin (propet containing 10^−5% to 10^−7% by weight (100 ng/g to 1 ng/g), once a day for 9 days, n=4) is listed as “wound healing was obviously promoted”. In addition, the “apoptosis or apoptosis-like cell death of neurons caused by SNP, MAP2 band (FIG. 16)” value in series [2] (0.01 fg/ml (lane 3) to 1 ng/ml (lane 7), SNP 300 μM 10 minutes, 16 hours after SNP) is reported as “obviously inhibited”. Further, the “apoptosis or apoptosis-like cell death of nerve cells, MAP2 densitometry (FIG. 17)” value in series [2] (0.01 fg/ml to 1 ng/ml, n=5, P<0.001 / P<0.0001) is listed as “significantly inhibited”. Moreover, in the series on cerebral infarct lesion, the “therapeutic effect on brain infarction” value is “excellent therapeutic effect on brain infarction”.
For the compound EGF: epidermal growth factor, the “action to promote wound healing” value in the series with open wound of rat skin is “inferior to the effects of continuous intravenous administration of ginsenoside Rb1”.
Consider PDGF, for which the “action to promote wound healing” value with open wound of rat skin is on record as “inferior to the effects of continuous intravenous administration of ginsenoside Rb1”.
As for bFGF: basic fibroblast growth factor, in the series on open wound of rat skin, the “action to promote wound healing” value is on record as “inferior to the effects of continuous intravenous administration of ginsenoside Rb1”.
